Data set [1] is described as follows: Pharmacokinetics in rat after intravenous administration 1 mg/kg. The class given is in vivo, Male Sprague Dawley Rat. The note with it: rat. As for the experimental part: Compounds were applied perorally by gavage at 5 mg/kg each and by i.v. Injection at 1 mg/kg each to male 12 weeks old C57BI/6J or Sprague Dawley rats and plasma concentrations of the test items were determined by LC-MS/MS after time points as indicated. In the case of Cynomolgus monkeys ([…]), the dose was adjusted to 12 mg/kg p.o., no i.v. injection was given (FIG. 1a, 1b and Table 2).
A solution of 2.5 mg/mL of each test item was produced by diluting them in the vehicle, 0.5% Hydroxypropyl-Methylcellulose (w/v) in 20 mM phosphate buffered saline pH 7.4. The solutions were stirred overnight at room temperature and heated to 40° C. for 10 minutes, resulting in fully homogenous suspension. The application was performed by administrating the solution perorally to the mice, with an application volume of 5 mL/kg. For each time point three mice or rats were used. In case of the Cynomolgus monkeys blood samples were obtained by repeated vein puncture. Blood samples were treated with L1-heparin during collection procedure and stored on ice until centrifugation at 645 g (5 min, 4° C.). Plasma was harvested and kept at −20° C. until being assayed. To 50 μL of plasma sample […] acetonitrile containing an internal standard was added. Samples were vigorously shaken and centrifuged for 10 minutes at 6000 g and 20° C. An aliquot of the particle-free supernatant was transferred to 200 μL sampler vials and subsequently subjected to LC MS/MS for quantification.

Data set [2] relates to C57BLKS lepr^−/− db/db mice. Nature of the data set: Lipid lowering effects in db/db mice. The conditions noted are these: 3 days of dosing at 2×5 mg/kg/day. The format is in vivo, mouse. As for the experimental part:
Compounds were applied perorally by gavage at 2×5 mg/kg each to C57BLKS lepr^−/− db/db mice starting at the age of 12 weeks. Animals have been set on a High-Fat Diet (ssniff EF R/M 12330 with 59% (kcal) fat from Ssniff, Soest, Germany) for two weeks prior to start of gavage. Baseline blood was taken by retroorbital bleeding. Blood samples were treated with L1-heparin during collection procedure and stored on ice until centrifugation at 645 g (5 min, 4° C.). Plasma was harvested and kept at −20° C. until being assayed. Total triglycerides and total cholesterol were measured in a 3 μL aliquot of plasma using commercial kits LabAssay™ Triglyceride (Code No 290-63701) and LabAssay™ Cholesterol (Code No 294-65801) from Wako Diagnostics (Neuss, Germany). […]

Data set [3] in a line: UV photostability, irradiation at 254 nm, 1H NMR. The format is physicochemical. As for the experimental part: The compounds of interest were dissolved using ethanol and their UV spectrum was analyzed to determine their λmax to establish an irradiation wavelength to be used in the study (see FIG. 2). The best wavelength for testing the UV stability of the —CH═CH— double bond was determined to be 254 nm. Further material of the compounds was then dissolved in deuterated ethanol and the ^1H NMRs (400 MHz) analyzed (T=0). Each sample was then recovered from the NMR tube and subjected to UV irradiation (254 nm) for 4 h, 15 h and 70 h. At the respective timepoints the individual samples were re-analyzed by ^1H NMR and the signal for the —CH═CH— protons evaluated to assess the percent of remaining intact double bond. Other changes in the chemical shift signals were also analyzed for further changes on the overall structure of the molecules.

For data set [4] the following is noted: according to Akwabi-Ameyaw et al.; cited from earlier work.
For data set [5] the following is noted: attributed to trans-stilbene moiety, Akwabi-Ameyaw et al.; cited from earlier work.
Where [6] appears, read: male, Sprague Dawley, plasma, iv, 1 mg/kg i.v.

As for `CC(C)c1onc(-c2c(Cl)cccc2Cl)c1COc1ccc(/C=C/c2cccc(C(=O)O)c2)c(Cl)c1` [GW4064, reference compound], in data set [1] (setting [6]), the total exposure AUC(0-inf) was 294 ng·h/mL, the MRT last came out at 50.4 min, the time to peak (Tmax) amounted to 4.98 min and the volume of distribution (Vd) amounted to 5.98 L/kg. In data set [1] (setting [6]), this compound showed a half-life of 73.2 min. In data set [1] (male, Sprague Dawley, plasma, iv, 1 mg/kg i.v., 0.083 hr), this compound returned a concentration at 0.083 hr of 405 ng/mL. For the same compound, the concentration at 0.25 hr in data set [1] (male, Sprague Dawley, plasma, iv, 1 mg/kg i.v., 0.25 hr) worked out at 208 ng/mL. Further, the concentration at 0.5 hr in data set [1] (male, Sprague Dawley, plasma, iv, 1 mg/kg i.v., 0.50 hr) is 124 ng/mL. For the same compound, the concentration at 1 hr in data set [1] (male, Sprague Dawley, plasma, iv, 1 mg/kg i.v., 1.00 hr) was 68.3 ng/mL. The concentration at 2 hr in data set [1] (male, Sprague Dawley, plasma, iv, 1 mg/kg i.v., 2.00 hr) turned out to be 25 ng/mL. Moreover, in data set [1] (male, Sprague Dawley, plasma, iv, 1 mg/kg i.v., 4.00 hr), the concentration at 4 hr was 15 ng/mL. The highest concentration (Cmax) in data set [1] (male, Sprague Dawley, plasma, 1 mg/kg i.v., footnote: Co for Intravenous) was determined as 565 ng/mL. Also, the AUC(0-t) in data set [1] (male, Sprague Dawley, plasma, iv, 1 mg/kg, read-out: #AUC(0-8)) came out at 268 ng·h/mL. Also, in data set [1] (1 mg/kg i.v.), the “AUC Extrapolated” value is 9.0% and the CI stood at 56.7083 mL/min/kg. The “change in fasting blood glucose against vehicle” value in data set [2] was −6%. Also, the “behaviour in 1H NMR spectrum after prolonged UV irradiation” value in data set [3] (70 h UV irradiation at 254 nm) is on record as “major changes”. Further, the “compound still present in the mixture (1H NMR integration)” value in data set [3] (70 h UV irradiation at 254 nm, deuterated ethanol) is reported as “less than 30%”. This compound also showed a compound decayed in data set [3] (after 70 h UV irradiation at 254 nm) of 70%. Also, in data set [4], the oral bioavailability result was “low”, the plasma exposure result was “low” and the plasma half life entry is reported as “short”. Also, the ultraviolet light stability entry in data set [5] was “instability”.

As a reminder, the AUC(0-inf) is the area under the concentration-time curve extrapolated to infinity. Read a high AUC(0-inf) as more exposure. In general, MRT last refers to the average time that molecules of a dose stay in the body. For orientation: Tmax means the time from dosing to the highest level. By Vd is commonly meant the apparent volume that relates the amount in the body to the concentration in plasma or blood. High values mean wide distribution into tissue, low ones little distribution into tissue. The term half-life denotes the time in which the quantity being followed falls by half. Lower therefore signals fast loss. A word on the Cmax: it is the highest concentration seen after dosing.

The record behind these values is US8952042B2, “FXR (NR1H4) binding and activity modulating compounds” (Phenex Pharmaceuticals AG, priority 2009, dated 2015).
